Experimental data from ChEMBL document CHEMBL1201862, “PubChem BioAssay data set” (2004).
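Following 48 hours of exposure in 96-well plates, responses at five concentrations were used to interpolate endpoints linearly. GI50: concentration for 50% inhibition of growth.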 The source made the active and inactive calls. No stated cut-off is given here; in the data, active = GI50 up to about 1.1 µM and inactive = higher.

Tests used:
Test in all cases: DTP human tumour cell line panel, 48 h
[1] = tested on: RXF 393
[2] = tested on: ACHN
[3] = tested on: T47D
[4] = tested on: CAKI-1
[5] = tested on: CCRF-CEM
[6] = tested on: A549
[7] = tested on: MDA-MB-231
[8] = tested on: LOX IMVI
[9] = tested on: TK-10
[10] = tested on: NCI-H522
[11] = tested on: NCI-H226
[12] = tested on: UO-31
[13] = tested on: U-251
[14] = tested on: SK-MEL-5
[15] = tested on: KM12
[16] = tested on: 786-0
[17] = tested on: M14
[18] = tested on: OVCAR-8
[19] = tested on: SW-620
[20] = tested on: HOP-92

Row | Compound | GI50 [1] | GI50 [2] | GI50 [3] | GI50 [4] | GI50 [5] | GI50 [6] | GI50 [7] | GI50 [8] | GI50 [9] | GI50 [10] | GI50 [11] | GI50 [12] | GI50 [13] | GI50 [14] | GI50 [15] | GI50 [16] | GI50 [17] | GI50 [18] | GI50 [19] | GI50 [20]
1 | Brc1ccccc1/C=N\C12CC3CC(CC(C3)C1)C2 | 97.9 µM (inactive) | > 68.2 µM (inactive) | > 100 µM (inactive) | 24.8 µM (inactive) | 4.54 µM (inactive) | > 100 µM (inactive) | > 100 µM (inactive) | 19.9 µM (inactive) | > 100 µM (inactive) | > 100 µM (inactive) | > 100 µM (inactive) | > 100 µM (inactive) | 12.9 µM (inactive) | 51.6 µM (inactive) | > 100 µM (inactive) | > 52.8 µM (inactive) | 28.1 µM (inactive) | > 100 µM (inactive) | 3.9 µM (inactive) | 84.7 µM (inactive)
2 | Cn1c(N=P(c2ccccc2)(c2ccccc2)c2ccccc2)c([N+](=O)[O-])c(=O)n(C)c1=O | > 100 µM (inactive) | 55.7 µM (inactive) | 33.7 µM (inactive) | > 100 µM (inactive) | 20.2 µM (inactive) | 40.6 µM (inactive) | 32.2 µM (inactive) | 35.9 µM (inactive) | 67.9 µM (inactive) | 41.9 µM (inactive) | > 100 µM (inactive) | 71 µM (inactive) | 66.2 µM (inactive) | 47.4 µM (inactive) | 25.6 µM (inactive) | 39 µM (inactive) | 31.6 µM (inactive) | 0.991 µM (active) | 41.4 µM (inactive) | > 100 µM (inactive)
3 | CC1=NN(C(=O)CC(=O)Nc2ccc(C)cc2)C(=O)C1/N=N\c1ccc(S(=O)(=O)c2ccc(/N=N/C3C(=O)N(C(=O)CC(=O)Nc4ccc(C)cc4)N=C3C)cc2)cc1 (stereo not given) | > 100 µM (inactive) | 62.8 µM (inactive) | > 100 µM (inactive) | > 100 µM (inactive) | 9.4 µM (inactive) | 31.6 µM (inactive) | 35.6 µM (inactive) | 16.2 µM (inactive) | > 100 µM (inactive) | 23.3 µM (inactive) | > 100 µM (inactive) | > 100 µM (inactive) | 52.1 µM (inactive) | 58.9 µM (inactive) | 65.6 µM (inactive) | 21 µM (inactive) | 38 µM (inactive) | 64.6 µM (inactive) | 32.7 µM (inactive) | > 100 µM (inactive)
4 | COc1cc(/C=C/c2nc(NC(=S)Nc3ccccc3)nnc2C)cc(OC)c1OC | 23.6 µM (inactive) | 18.2 µM (inactive) | 19.7 µM (inactive) | 29.1 µM (inactive) | 13.5 µM (inactive) | 23.8 µM (inactive) | 33 µM (inactive) | 37.2 µM (inactive) | 41.4 µM (inactive) | 11.1 µM (inactive) | 23.7 µM (inactive) | 4.36 µM (inactive) | 31 µM (inactive) | 14.7 µM (inactive) | 14.5 µM (inactive) | 28.3 µM (inactive) | 21.4 µM (inactive) | 20.8 µM (inactive) | 38.1 µM (inactive) | 53.7 µM (inactive)
5 | COc1ccc(/C(Cl)=C(\C#N)c2ccc(OC)c(OC)c2)cc1OC | 38.6 µM (inactive) | 93.8 µM (inactive) | 34.4 µM (inactive) | 54.2 µM (inactive) | > 10 µM (inactive) | > 100 µM (inactive) | 35.6 µM (inactive) | > 100 µM (inactive) | > 100 µM (inactive) | 59.8 µM (inactive) | 77.4 µM (inactive) | 59 µM (inactive) | 40.1 µM (inactive) | 46.8 µM (inactive) |  | > 100 µM (inactive) | > 100 µM (inactive) |  | > 100 µM (inactive) | 17.8 µM (inactive)
6 | O=[N+]([O-])C(=C/c1cccs1)/C(=C\c1cccs1)[N+](=O)[O-] | 0.157 µM (active) | 0.543 µM (active) | 1.68 µM (inactive) | 0.465 µM (active) | 0.0263 µM (active) | 2.27 µM (inactive) | 0.44 µM (active) | 0.209 µM (active) | 0.962 µM (active) | 0.327 µM (active) | 2.77 µM (inactive) | 1.2 µM (inactive) | 0.397 µM (active) | 1.08 µM (active) | 2.34 µM (inactive) | 0.298 µM (active) | 1.04 µM (active) | 0.342 µM (active) | 0.348 µM (active) | 0.802 µM (active)
7 | COC1=CCC2=C(CCN(C(=O)C3CC3)C2Cc2ccc(OC)c(O)c2)C1 (stereo not given) | 13.5 µM (inactive) | > 100 µM (inactive) | 21 µM (inactive) | 83.4 µM (inactive) | 34 µM (inactive) | 63.4 µM (inactive) | 63.2 µM (inactive) | 86.7 µM (inactive) | 67.1 µM (inactive) | 28.8 µM (inactive) | 89.3 µM (inactive) | > 100 µM (inactive) | 86.7 µM (inactive) | 28.6 µM (inactive) | 37.2 µM (inactive) | 92.9 µM (inactive) | 45 µM (inactive) | 34 µM (inactive) | 29 µM (inactive) | 27.9 µM (inactive)
8 | N#Cc1c(-c2ccccc2)cc(Nc2ccc(Cl)cc2)n2c1nc1ccccc12 | 4.35 µM (inactive) | 3.03 µM (inactive) | 2.71 µM (inactive) | 3.59 µM (inactive) | 4.66 µM (inactive) | 1.71 µM (inactive) | 3.27 µM (inactive) | 3.75 µM (inactive) | 4.45 µM (inactive) | 1.91 µM (inactive) | 4.45 µM (inactive) | 2.49 µM (inactive) | 2.49 µM (inactive) | 1.46 µM (inactive) | 2.94 µM (inactive) | 2.62 µM (inactive) | 4.23 µM (inactive) | 2.96 µM (inactive) | 4.84 µM (inactive) | 0.397 µM (active)
9 | CSC(=O)/C=C1\SS/C(=C\C(=O)SC)S1 | 1.24 µM (inactive) | 2.99 µM (inactive) | 5.83 µM (inactive) | 1.39 µM (inactive) | 1.88 µM (inactive) | 6.24 µM (inactive) | 2.07 µM (inactive) | 1.55 µM (inactive) | 4.93 µM (inactive) | 2.39 µM (inactive) | 1.77 µM (inactive) | 2.43 µM (inactive) | 2.14 µM (inactive) | 2.65 µM (inactive) | 5.05 µM (inactive) | 1.85 µM (inactive) | 2.09 µM (inactive) | 3.44 µM (inactive) | 1.81 µM (inactive) | 2.83 µM (inactive)
10 | CCCCN1C(=O)N(c2ccc(OCC)cc2)C2N(CCCC)C1C(C)(C)C2(C)C (stereo not given) | 16.3 µM (inactive) | 27.7 µM (inactive) | 22.4 µM (inactive) | 26.3 µM (inactive) | 16.3 µM (inactive) | 56.4 µM (inactive) | 41.5 µM (inactive) | 7.71 µM (inactive) | 22.5 µM (inactive) | 44.1 µM (inactive) | 20.2 µM (inactive) | 27.1 µM (inactive) | 37 µM (inactive) | 15.7 µM (inactive) | 34.1 µM (inactive) | 21.5 µM (inactive) | 25.1 µM (inactive) | 32.3 µM (inactive) | 32.6 µM (inactive) | 23.5 µM (inactive)
11 | CC(=O)O[C@H]1C(=O)[C@@]2(C)[C@H]([C@H](OC(=O)c3ccccc3)[C@@]3(O)C[C@H](O)C(C)=C1C3(C)C)[C@]1(OC(C)=O)CO[C@@H]1C[C@@H]2O | 37.1 µM (inactive) | > 100 µM (inactive) | > 100 µM (inactive) | > 100 µM (inactive) | 46.2 µM (inactive) | 73.3 µM (inactive) | 45.1 µM (inactive) | 45.3 µM (inactive) | 83.2 µM (inactive) | 17 µM (inactive) | 86.5 µM (inactive) | 82 µM (inactive) | 45.9 µM (inactive) | 35.8 µM (inactive) | 15.2 µM (inactive) | 51.5 µM (inactive) | 28.6 µM (inactive) | 31.2 µM (inactive) | 14.6 µM (inactive) | > 100 µM (inactive)
12 | CC(=O)OCC1OC(N2C(c3ccccc3)=CC(c3ccccc3)C(C#N)=C2S)C(OC(C)=O)C(OC(C)=O)C1OC(C)=O (stereo not given) | 3.17 µM (inactive) | 5.58 µM (inactive) | 3.99 µM (inactive) | 3.08 µM (inactive) | > 61.2 µM (inactive) | 7.62 µM (inactive) | 3.7 µM (inactive) | 4.49 µM (inactive) | 22.2 µM (inactive) | 7.89 µM (inactive) | 12.7 µM (inactive) | 19.2 µM (inactive) | 3.57 µM (inactive) | 1.64 µM (inactive) | 15.7 µM (inactive) | 2.33 µM (inactive) | 12.6 µM (inactive) | 3.88 µM (inactive) | 54.7 µM (inactive) | 3.81 µM (inactive)
13 | N=C(N)SCCSC(=N)N | > 100 µM (inactive) | > 100 µM (inactive) | > 100 µM (inactive) | > 100 µM (inactive) |  | > 100 µM (inactive) | > 100 µM (inactive) | > 100 µM (inactive) | > 100 µM (inactive) | > 100 µM (inactive) | > 100 µM (inactive) | > 100 µM (inactive) | > 100 µM (inactive) | > 100 µM (inactive) | > 100 µM (inactive) | > 100 µM (inactive) | > 100 µM (inactive) | > 100 µM (inactive) | > 100 µM (inactive) | > 100 µM (inactive)
14 | O=C1/C(=C\Oc2ccc(F)cc2)N2CCC1CC2 | 25.1 µM (inactive) | 76.2 µM (inactive) | 54.6 µM (inactive) | 84.9 µM (inactive) | 34.4 µM (inactive) | > 100 µM (inactive) | 80.5 µM (inactive) | 25.7 µM (inactive) | 55.3 µM (inactive) | 50.8 µM (inactive) | 35.5 µM (inactive) | 45.1 µM (inactive) | 77.1 µM (inactive) | 63.5 µM (inactive) |  | > 100 µM (inactive) | > 100 µM (inactive) | 85.1 µM (inactive) |  | 41.4 µM (inactive)
